# Earlier results, collected in patent publication US20230190604A1, “DERMATOLOGIC/PERSONAL CARE CONCENTRATES” (Vantage Specialty Ingredients, Inc., priority 2021, published 2023).
# Legend:
# [1] = water as solvent
# [2] = ethanol as solvent, "normal temperatures"
structure (smiles),measurement,setting,value
O=C(O)CCCCCCCC(=O)O [azelaic acid],maximum concentration of azelaic acid dissolved in water,[1],about 0.24 % by weight (w/w)
same,stability of azelaic acid in ethanol,[2],unstable
